Experimental findings from ChEMBL document CHEMBL5543126, “Combinatorial Ubiquitination REal-time PROteolysis (CURE-PROs): A Modular Platform for Generating Reversible, Self-Assembling Bifunctional Targeted Degraders” (J Med Chem, 2024) are described below.

Common to all, as to assay type: cell-based
Assay [1] deals with T1, von Hippel-Lindau disease tumor suppressor/Bromodomain-containing protein 4 (Homo sapiens, UniProt O60885+P40337). The experiment in a line: PROTAC activity at VHL/BRD4 in HEK293 cells assessed as induction of BRD4 degradation by measuring degradation rate at 1 uM measured every 15 mins for 24 hrs in presence of BRD4 based ligand ((4S)-6-(4-chlorophenyl)-4-(2-(ethylamino)-2-oxoethyl)-1-methyl4Hbenzo[f][1,2,4]triazolo [4,3-a][1,4]diazepin-8-yl)boronic acid by HiBiT based Combinatorial Ubiquitination Real-time PROteolysis analysis. For orientation: HiBiT is a short tag that completes a luciferase, so light tracks the accessible tagged protein.

For assay [2], the target named is T1, von Hippel-Lindau disease tumor suppressor/Bromodomain-containing protein 4. Kind of assay: PROTAC activity at BRD4/VHL in human MCF7 cells assessed as induction of BRD4 degradation by measuring residual activity at 300 nM incubated for 24 hrs in presence of BRD4 based ligand ((4S)-6-(4-chlorophenyl)-4-(2-(ethylamino)-2-oxoethyl)-1-methyl4Hbenzo[f][1,2,4]triazolo [4,3-a][1,4]diazepin-8-yl)boronic acid by Western blot based Combinatorial Ubiquitination Real-time PROteolysis analysis.

For assay [3] the target is unchanged. Kind of assay: PROTAC activity at BRD4/VHL in human MCF7 cells assessed as induction of BRD4 degradation by measuring residual activity at 100 nM incubated for 24 hrs in presence of 300 nM BRD4 based ligand ((4S)-6-(4-chlorophenyl)-4-(2-(ethylamino)-2-oxoethyl)-1-methyl4Hbenzo[f][1,2,4]triazolo [4,3-a][1,4]diazepin-8-yl)boronic acid by Western blot based Combinatorial Ubiquitination Real-time PROteolysis analysis. For orientation: Immunoblotting shows a protein as a band on a membrane.

Assay [4] has the same target. The experiment in a line: PROTAC activity at BRD4/VHL in human MCF7 cells assessed as induction of BRD4 degradation by measuring residual activity at 1 uM incubated for 24 hrs in presence of 1 uM BRD4 based ligand ((4S)-6-(4-chlorophenyl)-4-(2-(ethylamino)-2-oxoethyl)-1-methyl4Hbenzo[f][1,2,4]triazolo [4,3-a][1,4]diazepin-8-yl)boronic acid by Western blot based Combinatorial Ubiquitination Real-time PROteolysis analysis.

The target is the same in assay [5]. Kind of assay: PROTAC activity at BRD4/VHL in human MCF7 cells assessed as induction of BRD4 degradation by measuring residual activity at 30 nM incubated for 24 hrs in presence of 3 uM BRD4 based ligand ((4S)-6-(4-chlorophenyl)-4-(2-(ethylamino)-2-oxoethyl)-1-methyl4Hbenzo[f][1,2,4]triazolo [4,3-a][1,4]diazepin-8-yl)boronic acid by Western blot based Combinatorial Ubiquitination Real-time PROteolysis analysis.

For assay [6] the target is unchanged. Kind of assay: PROTAC activity at BRD4/VHL in human MCF7 cells assessed as induction of BRD4 degradation by measuring residual activity at 3 uM incubated for 24 hrs in presence of 3 uM BRD4 based ligand ((4S)-6-(4-chlorophenyl)-4-(2-(ethylamino)-2-oxoethyl)-1-methyl4Hbenzo[f][1,2,4]triazolo [4,3-a][1,4]diazepin-8-yl)boronic acid by Western blot based Combinatorial Ubiquitination Real-time PROteolysis analysis.

Assay [7] has the same target. Kind of assay: PROTAC activity at BRD4/VHL in human MCF7 cells assessed as induction of BRD4 degradation by measuring residual activity at 100 nM incubated for 24 hrs in presence of 10 uM BRD4 based ligand ((4S)-6-(4-chlorophenyl)-4-(2-(ethylamino)-2-oxoethyl)-1-methyl4Hbenzo[f][1,2,4]triazolo [4,3-a][1,4]diazepin-8-yl)boronic acid by Western blot based Combinatorial Ubiquitination Real-time PROteolysis analysis.

Assay [8] shares this target. Kind of assay: PROTAC activity at VHL/BRD4 in human MCF7 cells assessed as induction of BRD4 degradation at 10 uM measured at 4 hrs in presence of VHL based ligand (2S,4R)-1-((S)-2-(2,3-dihydroxybenzamido)-3,3-dimethylbutanoyl)-4-hydroxy-N-(4-(4-methylthiazol-5-yl)benzyl)pyrrolidine-2-carboxamide by Western blot based Combinatorial Ubiquitination Real-time PROteolysis analysis.

For assay [9] the target is unchanged. The experiment in a line: PROTAC activity at BRD4/VHL in human MCF7 cells assessed as induction of BRD4 degradation by measuring residual activity at 100 nM incubated for 24 hrs in presence of 100 nM VHL based ligand (2S,4R)-1-((S)-2-(2,3-dihydroxybenzamido)-3,3-dimethylbutanoyl)-4-hydroxy-N-(4-(4-methylthiazol-5-yl)benzyl)pyrrolidine-2-carboxamide by Western blot based Combinatorial Ubiquitination Real-time PROteolysis analysis.

For assay [10] the target is unchanged. Kind of assay: PROTAC activity at BRD4/VHL in human MCF7 cells assessed as induction of BRD4 degradation by measuring residual activity at 100 nM incubated for 24 hrs in presence of 300 nM VHL based ligand (2S,4R)-1-((S)-2-(2,3-dihydroxybenzamido)-3,3-dimethylbutanoyl)-4-hydroxy-N-(4-(4-methylthiazol-5-yl)benzyl)pyrrolidine-2-carboxamide by Western blot based Combinatorial Ubiquitination Real-time PROteolysis analysis.

Assay [11] shares this target. The experiment in a line: PROTAC activity at BRD4/VHL in human MCF7 cells assessed as induction of BRD4 degradation by measuring residual activity at 3 uM incubated for 24 hrs in presence of 300 nM VHL based ligand (2S,4R)-1-((S)-2-(2,3-dihydroxybenzamido)-3,3-dimethylbutanoyl)-4-hydroxy-N-(4-(4-methylthiazol-5-yl)benzyl)pyrrolidine-2-carboxamide by Western blot based Combinatorial Ubiquitination Real-time PROteolysis analysis.

Assay [12] shares this target. Kind of assay: PROTAC activity at BRD4/VHL in human MCF7 cells assessed as induction of BRD4 degradation by measuring residual activity at 3 uM incubated for 24 hrs in presence of 1 uM VHL based ligand (2S,4R)-1-((S)-2-(2,3-dihydroxybenzamido)-3,3-dimethylbutanoyl)-4-hydroxy-N-(4-(4-methylthiazol-5-yl)benzyl)pyrrolidine-2-carboxamide by Western blot based Combinatorial Ubiquitination Real-time PROteolysis analysis.

For assay [13] the target is unchanged. Kind of assay: PROTAC activity at BRD4/VHL in human MCF7 cells assessed as induction of BRD4 degradation by measuring residual activity at 100 nM incubated for 24 hrs in presence of 3 uM VHL based ligand (2S,4R)-1-((S)-2-(2,3-dihydroxybenzamido)-3,3-dimethylbutanoyl)-4-hydroxy-N-(4-(4-methylthiazol-5-yl)benzyl)pyrrolidine-2-carboxamide by Western blot based Combinatorial Ubiquitination Real-time PROteolysis analysis.

Assay [14] has the same target. The experiment in a line: PROTAC activity at BRD4/VHL in human MCF7 cells assessed as induction of BRD4 degradation by measuring residual activity at 100 nM incubated for 24 hrs in presence of 10 uM VHL based ligand (2S,4R)-1-((S)-2-(2,3-dihydroxybenzamido)-3,3-dimethylbutanoyl)-4-hydroxy-N-(4-(4-methylthiazol-5-yl)benzyl)pyrrolidine-2-carboxamide by Western blot based Combinatorial Ubiquitination Real-time PROteolysis analysis.

For assay [15] the target is unchanged. The experiment in a line: PROTAC activity at BRD4/VHL in human MCF7 cells assessed as induction of BRD4 degradation by measuring residual activity at 3 uM incubated for 24 hrs in presence of 10 uM VHL based ligand (2S,4R)-1-((S)-2-(2,3-dihydroxybenzamido)-3,3-dimethylbutanoyl)-4-hydroxy-N-(4-(4-methylthiazol-5-yl)benzyl)pyrrolidine-2-carboxamide by Western blot based Combinatorial Ubiquitination Real-time PROteolysis analysis.

T1 sequence (P40337 whole entry, looked up, other chains not shown): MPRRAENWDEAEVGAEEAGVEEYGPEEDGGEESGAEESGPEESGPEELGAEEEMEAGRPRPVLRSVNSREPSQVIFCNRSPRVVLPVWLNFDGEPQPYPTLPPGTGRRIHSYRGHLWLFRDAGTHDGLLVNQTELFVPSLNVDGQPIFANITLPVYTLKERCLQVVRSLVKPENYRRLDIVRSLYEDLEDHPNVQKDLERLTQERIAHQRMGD

Regarding `Cc1ncsc1-c1ccc(CNC(=O)[C@@H]2C[C@@H](O)CN2C(=O)[C@@H](NC(=O)c2cccc(O)c2O)C(C)(C)C)cc1`, the Activity is 0.548 h⁻¹ in assay [1]; 100% in assay [2]; 77% in assay [3]; 35% in [4]; 90% in [5]; 16% in assay [6]. The Activity in [7] is 87%.

In the case of `CCNC(=O)C[C@@H]1N=C(c2ccc(Cl)cc2)c2cc(B(O)O)ccc2-n2c(C)nnc21`, the Activity in assay [8] was found to be 100%; in assay [9], 97%; in [10], 77%; in assay [11] it was 39%; in assay [12], 32%; in assay [13], 74%. Further, the Activity in [14] was found to be 87%; in assay [15], 16%.
